Measured values from US6486209B2, “Use for 1,3-propanediol derivatives” (Novartis AG, priority 1996, dated 2002).

Key:
[1] = test system: carotid artery allograft (DA donors, Lewis recipients); assay: Prevention of graft vessel disease: carotid artery transplantation; assay type: in vivo, rat; conditions: 0.1 to 10 mg/kg alone or in combination with Cyclosporin A, 8 weeks, osmotic minipump s.c. or oral
Procedure: A. Prevention of Graft Vessel Disease
Inbred rat strains DA (RT1^a, donors) and Lewis (RT1^1, recipients of allografts), weighing between 200 and 350 grams are used. The animals are allowed unrestricted access to food and water before and after the operation.
Carotid artery transplantation:
The rats are anaesthetised with isofluorane (Abbott), (4-5% for induction, 1.5-2% for maintenance) and 300 μg atropin sulphate is injected subcutaneously following the induction. The left carotid artery is dissected free. The artery is clamped proximally and distally and a segment of about 7-10 mm is removed. The gap is bridged by an allograft which had also been subjected to 45 min cold ischemia. Ethilon 10/o sutures are used. Finally the skin is closed with 4/0 sutures. If needed, an Alzet osmotic minipump (Alza Corp. Palo Alto, Calif.) is then implanted subcutaneously over the back (alternatively the animals are treated orally).
The rats are subject to one of the following treatments: A compound of formula I alone at the doses of 0.1 to 10 mg/kg, or in combination with Cyclosporin A at the dose of 0.03, 0.3, or 1 mg.kg^−1·day^−1 is administered for 8 weeks either by using Alzet osmotic minipumps implanted subcutaneously or alternatively by oral administration. […]

[2] = test system: Syrian hamster heart xenograft in rat; assay: In vivo heart xenotransplantation (hamster-to-rat); conditions: 5-30 mg/kg/day orally
Text: B. In vivo heart xenotransplantation (hamster-to-rat)
The hamster-into-rat xenograft combination is a so-called difficult concordant combination. […] This is visualized in histology by destruction of blood vessels, exsudation and extravasation of erythrocytes, and influx by polymorphonuclear granulocytes; often there are signs of hemorrhage and thrombosis. Once this rejection has been overcome by effective inhibition of antibody synthesis or complement inactivation, a cellular rejection can emerge later on. This is visualized in histology by influx of mononuclear cells, including lymphocytes, lymphoblastoid cells, and macrophages, and destruction of the myocyte parenchyma. The inhibition of cellular rejection requires more immuno-suppression than that of allografts. Congenitally athymic (rnu/rnu) rats lack a competent (thymus-dependent) cellular immune system and generally are unable to reject allografts. Such animals do reject a hamster xenograft within 3-4 days in a similar fashion as euthymic rats, indicative that (at least part of) anti-hamster antibody synthesis in rats occurs following a thymus-independent B-cell response. […]
The graft is monitored daily by palpation of the abdomen. […] Animals are subjected to autopsy; apart from the graft, weight and histology is assessed for thymus, spleen, liver, seminal vesicles and testes. […]

CCCCCCCCc1ccc(CCC(N)(CO)CO)cc1 [Compound A, 2-amino-2-[2-(4-octylphenyl)ethyl]-1,3-propanediol]
graft infiltration [1]: significantly inhibit | neointima formation [1]: significantly inhibit | graft survival ([2]; athymic recipients): prolonged graft survival | graft survival ([2]; euthymic recipients): prolonged graft survival
